Measured values published in US20210177828A1, “TAM FAMILY KINASE /AND CSF1R KINASE INHIBITOR AND USE THEREOF” (Nanjing Transthera Biosciences Co., Ltd., priority 2018, published 2021).

Key:
Tyro-3 (h) = biological target: T1, Tyro-3 (h) (Homo sapiens, UniProt Q06418); experiment: Enzymatic activity assay, Tyro-3 (h), [γ-33P]-ATP filter assay; format: biochemical; settings: 10 μM ATP, 40 min room temperature; read-out: Inhibitory activity IC50 Tyro-3(h)
T1 sequence (Q06418 41-890): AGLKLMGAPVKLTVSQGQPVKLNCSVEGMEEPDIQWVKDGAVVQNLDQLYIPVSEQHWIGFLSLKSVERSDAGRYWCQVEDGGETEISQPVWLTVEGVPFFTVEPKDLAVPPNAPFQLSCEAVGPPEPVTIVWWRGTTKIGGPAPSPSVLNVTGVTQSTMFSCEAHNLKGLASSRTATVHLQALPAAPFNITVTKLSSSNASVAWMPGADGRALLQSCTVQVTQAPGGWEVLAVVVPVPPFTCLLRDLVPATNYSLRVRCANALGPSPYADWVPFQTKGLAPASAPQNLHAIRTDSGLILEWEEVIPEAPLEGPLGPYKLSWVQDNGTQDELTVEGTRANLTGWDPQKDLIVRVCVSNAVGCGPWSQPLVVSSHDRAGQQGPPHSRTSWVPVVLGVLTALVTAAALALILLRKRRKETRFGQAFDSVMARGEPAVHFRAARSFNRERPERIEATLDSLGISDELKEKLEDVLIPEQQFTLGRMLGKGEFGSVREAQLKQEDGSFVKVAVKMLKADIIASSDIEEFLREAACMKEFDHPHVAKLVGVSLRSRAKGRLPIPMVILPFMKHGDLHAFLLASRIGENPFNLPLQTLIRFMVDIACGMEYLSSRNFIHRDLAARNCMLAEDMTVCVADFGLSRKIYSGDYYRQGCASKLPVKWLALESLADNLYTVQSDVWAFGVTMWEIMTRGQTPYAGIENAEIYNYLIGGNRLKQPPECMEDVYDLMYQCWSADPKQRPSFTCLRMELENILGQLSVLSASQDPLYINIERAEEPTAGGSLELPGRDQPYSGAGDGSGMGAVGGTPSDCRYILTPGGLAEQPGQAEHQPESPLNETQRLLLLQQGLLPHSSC
Protocol: Compounds were each dissolved in 100% DMSO to prepare stock solutions with a maximum concentration of 500 μM.
Compound working solutions (50×) were prepared by diluting a compound stock solution to a final concentration of 500, 150, 50, 15, 5, 1.5, 0.5, 0.15 and 0.05 μM.
An enzyme solution with a final concentration of 38 nM was prepared by dissolving Tyro3 (h) enzyme in a mixture of 8 mM MOPS (pH 7.0), 0.2 mM EDTA, 1 mM MnCl2 and 250 μM KVEKIGEGTYGVVYK. A Mg/ATP mixture of 10 mM magnesium acetate and 10 μM [γ-^33P]-ATP was used to activate the enzymatic reaction.
A compound working solution was added to a 384-well plate, with final concentrations of 10,000, 3,000, 1,000, 300, 100, 30, 10, 3 and 1 nM, and then different enzymatic reaction solutions prepared according to the above conditions were added. The reaction solutions were incubated at room temperature for 40 min, and then 0.5% phosphoric acid solutions were added to terminate the reaction. 10 μL of the reaction solution was added dropwise to P30 filter paper, washed 4 times with a 0.425% phosphoric acid solution and once with methanol, and then placed in a scintillation counter for detection. Gray analysis was performed on the results with Image J software, and IC50 values were calculated with GraphPad 5.0 software.

H1299 cell pMer = biological target: T2, H1299 cell pMer (Homo sapiens, UniProt Q12866); experiment: Inhibitory activity on cell pMer, H1299 cells, Human Mer Mab stimulation, Western Blot; format: cell-based; settings: Human Mer Mab 200 ng/mL
T2 construct: endogenous in cells; host or cells: H1299
T2 sequence (Q12866 21-999): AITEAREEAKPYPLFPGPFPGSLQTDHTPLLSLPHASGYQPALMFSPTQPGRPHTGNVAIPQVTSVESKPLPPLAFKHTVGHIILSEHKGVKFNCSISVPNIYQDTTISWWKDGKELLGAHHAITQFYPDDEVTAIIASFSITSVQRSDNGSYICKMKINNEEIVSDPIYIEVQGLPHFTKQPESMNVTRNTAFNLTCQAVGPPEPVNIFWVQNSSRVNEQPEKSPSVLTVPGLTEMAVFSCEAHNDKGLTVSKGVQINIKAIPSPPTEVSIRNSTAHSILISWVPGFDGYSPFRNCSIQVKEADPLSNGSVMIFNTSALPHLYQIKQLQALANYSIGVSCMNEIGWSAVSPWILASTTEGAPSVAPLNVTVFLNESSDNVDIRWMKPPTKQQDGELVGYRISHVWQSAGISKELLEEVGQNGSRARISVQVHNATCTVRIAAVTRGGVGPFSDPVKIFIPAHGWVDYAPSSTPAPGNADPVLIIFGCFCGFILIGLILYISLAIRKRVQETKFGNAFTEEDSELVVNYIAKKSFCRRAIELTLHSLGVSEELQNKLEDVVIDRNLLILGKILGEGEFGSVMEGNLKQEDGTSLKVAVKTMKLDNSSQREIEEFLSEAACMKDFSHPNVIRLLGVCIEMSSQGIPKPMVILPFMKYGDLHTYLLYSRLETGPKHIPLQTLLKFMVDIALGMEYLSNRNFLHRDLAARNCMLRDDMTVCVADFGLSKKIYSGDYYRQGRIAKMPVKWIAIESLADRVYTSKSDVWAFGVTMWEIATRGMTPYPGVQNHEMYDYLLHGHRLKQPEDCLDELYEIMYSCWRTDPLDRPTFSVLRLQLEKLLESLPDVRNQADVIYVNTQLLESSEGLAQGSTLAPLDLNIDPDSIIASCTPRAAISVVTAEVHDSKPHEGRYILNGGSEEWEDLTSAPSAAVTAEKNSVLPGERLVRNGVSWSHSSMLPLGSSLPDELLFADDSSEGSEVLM
Protocol: H1299 is anon-small cell lung cancer cell.
H1299 cells were inoculated to a 6-well plate (containing 10% FBS 1640 medium, 5×10^5 cells per well) and adherently cultivated at 37° C., and 5% CO2 for 18 hrs. The cells were starved overnight, and then compound solutions with different concentrations were added. The compounds had final concentrations of 0.35, 1.1, 3.3 and 10 nM. […] There was a medium containing 1‰DMSO in the negative control well. The cells were incubated at 37° C., and 5% CO2 for 60 min, and then Human Mer Mab (R&D, final concentration: 200 ng/mL) was added to each well. The cells were further incubated for 60 min, and then the total protein of the cells was extracted for Western Blot experiment. Gray analysis was performed on the results with Image J software, and IC50 values were calculated with GraphPad 5.0 software. The inhibitory activities of the compounds on cell pMer were detected.

| SMILES | IC50 (Tyro-3 (h)) [nM] | IC50 (H1299 cell pMer) [nM] |
| --- | --- | --- |
| COc1cc2nccc(Oc3ccc(NC(=O)c4cn(CC5CCSCC5)cc(-c5ccc(C)cc5)c4=O)nc3)c2cc1OC [Compound 9, N-(5-((6,7-dimethoxyquinolin-4-yl)oxy)pyridin-2-yl)-4-oxo-1-((tetrahydro-2H-thiopyran-4-yl)methyl)-5-(p-tolyl)-1,4-dihydropyridin-3-carboxamide] | 28 | 1.1 to 3.3 |
| COc1cc2nccc(Oc3ccc(NC(=O)c4nn(C5CCOCC5)cc(-c5ccc(C)cc5)c4=O)cc3F)c2cc1OC [Compound 28] | 37 | 1.1 |
| COc1cc2nccc(Oc3cnc(NC(=O)c4nn(CC5CCOCC5)cc(-c5ccc(C)cc5)c4=O)nc3)c2cc1OC [Compound 16, N-(5-((6,7-dimethoxyquinolin-4-yl)oxy)pyrimidin-2-yl)-4-oxo-1-((tetrahydro-2H-pyran-4-yl)methyl)-5-(p-tolyl)-1,4-dihydropyridazin-3-carboxamide] | 23 | 1.1 |
| COc1cc2nccc(Oc3ccc(NC(=O)c4nn(CC5CCOCC5)cc(-c5ccc(C)cc5)c4=O)nc3)c2cc1OC [Compound 2, N-(5-((6,7-dimethoxyquinolin-4-yl)oxy)pyridin-2-yl)-4-oxo-1-((tetrahydro-2H-pyran-4-yl)methyl)-5-(p-tolyl)-1,4-dihydropyridazin-3-carboxamide] | 13 | 1.1 |

Second part, the compound after the results:

| IC50 (Tyro-3 (h)) [nM] | IC50 (H1299 cell pMer) [nM] | SMILES |
| --- | --- | --- |
| 58 | < 1.1 | COc1cc2nccc(Oc3cnc(NC(=O)c4nn(C5CCOCC5)cc(-c5ccc(C)cc5)c4=O)nc3)c2cc1OC [Compound 18, N-(5-((6,7-dimethoxyquinolin-4-yl)oxy)pyrimidin-2-yl)-4-oxo-1-(tetrahydro-2H-pyran-4-yl)-5-(p-tolyl)-1,4-dihydropyridazin-3-carboxamide] |
| 78 | 3.3 to 10 | COc1cc2nccc(Oc3cnc(NC(=O)c4cn(C5CCOCC5)cc(-c5ccc(F)cc5)c4=O)nc3)c2cc1OC [Compound 31, N-(5-((6,7-dimethoxyquinolin-4-yl)oxy)pyrimidin-2-yl)-5-(4-fluorophenyl)-4-oxo-1-(tetrahydro-2H-pyran-4-yl)-1,4-dihydropyridin-3-carboxamide] |
| 34 | < 0.35 | COc1cc2nccc(Oc3ccc(NC(=O)c4cn(C5CCOCC5)cc(-c5ccc(C)cc5)c4=O)nc3)c2cc1OC [Compound 19, N-(5-((6,7-dimethoxyquinolin-4-yl)oxy)pyridin-2-yl)-4-oxo-1-(tetrahydro-2H-pyran-4-yl)-5-(p-tolyl)-1,4-dihydropyridin-3-carboxamide] |
| 84 | 3.3 to 10 | COc1cc2nccc(Oc3cnc(NC(=O)c4cn(C5CCOCC5)cc(-c5ccc(C)cc5)c4=O)nc3)c2cc1OC [Compound 20, N-(5-((6,7-dimethoxyquinolin-4-yl)oxy)pyrimidin-2-yl)-4-oxo-1-(tetrahydro-2H-pyran-4-yl)-5-(p-tolyl)-1,4-dihydropyridin-3-carboxamide] |
